Data from patent US12629322B2, “Antiseptic compositions” (RHT LIMITED, priority 2020, dated 2026).

Tests used:
[1] = test system: PolySeed BOD Seed Inoculum (blend of broad spectrum bacteria); assay: Durability test of bacteria inhibition (repeated spiking of bacteria on agar plate, swab viable count); type: cell-based; conditions: bacteria spiked every 60 minutes
Protocol: To evaluate the durability of bacteria inhibition of the exemplary compositions, durability test by regularly spiking a fixed amount of bacteria into the sample is performed and the procedures are incorporated herein by reference.
• Group A: Agar plate with 0.5 mL distilled water; • Group B: Agar plate with 0.5 mL 75% isopropyl alcohol (IPA); • Group C: Agar plate with 0.5 g of tested exemplary composition.
Bacteria strain used: PolySeed® BOD Seed Inoculum Capsules (1 capsule dissolved into 500 mL Distilled Water) (Interlab), which contains a blend of broad spectrum bacteria designed specifically as a seed inoculum for the Biochemical Oxygen Demand (BOD 5) test as conducted in accordance to Standard Methods of the Examination of Water and Wastewater. PolySeed® is an EPA approved BOD 5 seed inoculum that has been used to seed both municipal and industrial wastes for almost 20 years. • Agar: Trypticase Soy Agar (TSA) • Incubation condition: 48 hours at 30±1° C. • Testing Procedure
The above three sample group agar plates are used as the sample matrices of different initial situation for spiking 0.5 ml bacteria solution for every 60 minutes, i.e.: there was an on-going process of spiking bacteria at time 0, 60, 120, 180, 240, 300 minutes;
A swab testing is carried out every 30 minutes from matrix samples of each group to test for the viable count of bacteria at the time interval.
Example of sample with sequence in time: • AM: 0.5 ml bacteria solution is added at T0−10 min; • Sample A1: To swab from AM at T0; Sample A2: To swab from AM at T1; • AM: 0.5 ml bacteria solution is added at T2−10 min; • Sample A3: To swab from AM at T2; Sample A4: To swab from AM at T3; • AM: 0.5 ml bacteria solution is added at T4−10 min; and so forth. Table 2 summarized the testing schedule for durability test.

[2] = test system: PolySeed BOD Seed Inoculum (blend of broad spectrum bacteria); assay: Volatility test (duration of bacteria inhibition on agar plate, swab viable count); type: cell-based
Protocol: To study the duration on ability of bacteria inhibition of an exemplary composition, a volatility test is performed.
• Group A: Agar plate with 0.5 mL distilled water; • Group B: Agar plate with 0.5 mL 75% isopropyl alcohol (IPA); • Group C: Agar plate with 0.5 g of tested exemplary composition. • Bacteria strain used: PolySeed® BOD Seed Inoculum Capsules (1 capsule dissolved into 500 mL Distilled Water) (Interlab) • Agar: Trypticase Soy Agar (TSA) • Incubation condition: 48 hours at 30±1° C. Testing Procedure
0.5 mL bacteria solution is add into the agar plate groups A, B and C at the time interval of Tx. as defined in Table 1.3.
After T10, bacteria solution is spiked to all the agar plates except agar blank.
Swab test is carried out to test for the viable count of bacteria at the time interval Tx.

In the case of 75% isopropyl alcohol [75% IPA], the “Viable count of bacteria, durability test” value ([1]; T0 (0 min)) is reported as 8 CFU/plate, the “Viable count of bacteria, durability test” value ([1]; T1 (30 min)) is reported as 28 CFU/plate and the “Viable count of bacteria, durability test” value ([1]; T2 (60 min)) is reported as 53 CFU/plate. The “Viable count of bacteria, durability test” value ([1]; T3 (90 min)) was 89 CFU/plate, the “Viable count of bacteria, durability test” value ([1]; T4 (120 min)) was 254 CFU/plate and the “Viable count of bacteria, durability test” value ([1]; T5 (150 min)) was 346 CFU/plate. For the same substance, the “Viable count of bacteria, volatility test” value ([2]; T0 (0 min)) was 54 CFU/plate, the “Viable count of bacteria, volatility test” value ([2]; T1 (30 min)) was 62 CFU/plate and the “Viable count of bacteria, volatility test” value ([2]; T2 (60 min)) was 50 CFU/plate. For the same substance, the “Viable count of bacteria, volatility test” value ([2]; T3 (90 min)) was 45 CFU/plate, the “Viable count of bacteria, volatility test” value ([2]; T4 (120 min)) was 49 CFU/plate and the “Viable count of bacteria, volatility test” value ([2]; T5 (150 min)) was 55 CFU/plate. For the same substance, the “Viable count of bacteria, volatility test” value ([2]; T6 (180 min)) was 43 CFU/plate, the “Viable count of bacteria, volatility test” value ([2]; T7 (210 min)) was 37 CFU/plate and the “Viable count of bacteria, volatility test” value ([2]; T8 (240 min)) was 44 CFU/plate. The “Viable count of bacteria, volatility test” value ([2]; T9 (270 min)) was 49 CFU/plate and the “Viable count of bacteria, volatility test” value ([2]; T10 (300 min)) was 0 CFU/plate.
